Test results as given in patent US20060154923A1, “N-phenyl-3-cyclopropylpyrazole-4-carbonitriles as ectoparasiticidal agents” (priority 2002, published 2006).
Where two headings read alike, the source gives them in different places.

Columns and labels:
Format in all cases: in vivo
[1] = system: Rhipacephalus sanguineus, adult ticks; assay: Contact activity against adult ticks, coated glass vial assay
Procedure: Evaluation of the Efficacy of Test Compounds Against Adult Ticks
(§1) The contact activity of a test compound against Rhipacephalus sanguineus, adult ticks, is evaluated in a coated glass vial assay. In this evaluation, a solution of test compound in acetone is allowed to dry on the interior surface of a 20 mL vial. Five unfed adult ticks are added to the treated vial and mortality is assessed periodically for up to 48 h. All treatments are replicated 2 times. The data are averaged.

[2] = system: newly emerged larvae of Lucilia sericata, blowfly; assay: Efficacy against blowfly larvae, treated paper/serum bioassay; details: for mortality at 0.2 ppm / mortality at 2 ppm / mortality at 20 ppm: Lucilia sericata
Procedure: Evaluation of Efficacy of Test Compounds Against Blowfly Larvae
The efficacy of a test compound against newly emerged larvae of Lucilia sericata, blowfly, is evaluated using a treated paper/serum bioassay. In this evaluation, a solution of test compound in acetone is applied to a filter paper disc and the disc is allowed to dry. Bovine serum and about 20 newly emerged blowfly larvae are added to the treated paper disc and the mortality is assessed at 24 h and 48 h. The data are averaged.

[3] = system: Ctenocephatides felis, adult cat fleas; assay: Contact activity against adult cat fleas, coated glass vial assay
Procedure: Evaluation of the Efficacy of Test Compounds Against Adult Cat Fleas
as §1, with “Ctenocephatides felis,” for “Rhipacephalus sanguineus,”, “cat fleas,” for “ticks,”, “coated,” for “coated”, “Ten” for “Five”, “cat fleas” for “ticks”

[4] = Conc. 0.2 ppm, 24 h, blowfly larvae
[5] = Conc. 0.2 ppm, 48 h, blowfly larvae
[6] = Conc. 2.0 ppm, 24 h, blowfly larvae
[7] = Conc. 2.0 ppm, 48 h, blowfly larvae
[8] = Conc. 20.0 ppm, 24 h, blowfly larvae
[9] = Conc. 20.0 ppm, 48 h, blowfly larvae
[10] = 24 h, read-out: % Mortality 24 h
[11] = 48 h, read-out: % Mortality 48 h

## CC1(c2nn(-c3c(Cl)cc(C(F)(F)F)cc3Cl)c(I)c2C#N)CC1(Cl)Cl (stereo not drawn) [Example 31]
[1]; Conc. 0.78 ug/cm2, 4 h
  % Mortality 4 h: 10%
[1]; Conc. 0.78 ug/cm2, 24 h
  % Mortality 24 h: 20%
[1]; Conc. 7.80 ug/cm2, 4 h
  % Mortality 4 h: 50%
[1]; Conc. 7.80 ug/cm2, 24 h
  % Mortality 24 h: 50%
[2]; [4]
  % Mortality 24 h: 0%
[2]; [5]
  % Mortality 48 h: 0%
[2]; [6]
  % Mortality 24 h: 95%
[2]; [7]
  % Mortality 48 h: 100%
[2]; [8]
  % Mortality 24 h: 97%
[2]; [9]
  % Mortality 48 h: 100%
[3]; Conc. 2 ug/cm2, 4 h
  % Mortality 4 h: 20%
[3]; Conc. 2 ug/cm2, 24 h
  % Mortality 24 h: 100%

## N#Cc1nn(-c2c(Cl)cc(C(F)(F)F)cc2Cl)c(N)c1[S+]([O-])C(F)(F)F (stereo not drawn) [Standard, Fipronil, reference compound]
[1]; Conc. 0.78 ug/cm2, 4 h
  % Mortality 4 h: 90%
[1]; Conc. 0.78 ug/cm2, 24 h
  % Mortality 24 h: 100%
[1]; Conc. 7.80 ug/cm2, 4 h
  % Mortality 4 h: 100%
[1]; Conc. 7.80 ug/cm2, 24 h
  % Mortality 24 h: 100%
[2]; [10]
  mortality at 0.2 ppm: 0%
  mortality at 2 ppm: 100%
  mortality at 20 ppm: 100%
[2]; [11]
  mortality at 0.2 ppm: 100%
  mortality at 2 ppm: 100%
  mortality at 20 ppm: 100%
[3]; Conc. 0.02 ug/cm2, 4 h
  % Mortality 4 h: 0%
[3]; Conc. 0.02 ug/cm2, 24 h
  % Mortality 24 h: 100%
[3]; Conc. 0.2 ug/cm2, 4 h
  % Mortality 4 h: 10%
[3]; Conc. 0.2 ug/cm2, 24 h
  % Mortality 24 h: 100%
[3]; Conc. 2 ug/cm2, 4 h
  % Mortality 4 h: 30%
[3]; Conc. 2 ug/cm2, 24 h
  % Mortality 24 h: 100%

## CC1(c2nn(-c3c(Cl)cc(C(F)(F)F)cc3Cl)c(Cl)c2C#N)CC1(Cl)Cl (stereo not drawn) [Example 4, 5-Chloro-3-(2,2-dichloro-1-methylcyclopropyl)-1-[2,6-dichloro-4-(trifluoromethyl)phenyl]-1H-pyrazole-4-carbonitrile]
[1]; Conc. 0.78 ug/cm2, 4 h
  % Mortality 4 h: 60%
[1]; Conc. 0.78 ug/cm2, 24 h
  % Mortality 24 h: 100%
[1]; Conc. 7.80 ug/cm2, 4 h
  % Mortality 4 h: 60%
[1]; Conc. 7.80 ug/cm2, 24 h
  % Mortality 24 h: 100%
[2]; Conc. 0.2 ppm, 24 h, blowfly larvae, read-out: % Mortality 24 h
  mortality at 0.2 ppm: 100%
[2]; Conc. 0.2 ppm, 48 h, blowfly larvae, read-out: % Mortality 48 h
  mortality at 0.2 ppm: 100%
[2]; Conc. 2.0 ppm, 24 h, blowfly larvae, read-out: % Mortality 24 h
  mortality at 2 ppm: 100%
[2]; Conc. 2.0 ppm, 48 h, blowfly larvae, read-out: % Mortality 48 h
  mortality at 2 ppm: 100%
[2]; Conc. 20.0 ppm, 24 h, blowfly larvae, read-out: % Mortality 24 h
  mortality at 20 ppm: 100%
[2]; Conc. 20.0 ppm, 48 h, blowfly larvae, read-out: % Mortality 48 h
  mortality at 20 ppm: 100%
[3]; Conc. 0.002 ug/cm2, 4 h
  % Mortality 4 h: 20%
[3]; Conc. 0.002 ug/cm2, 24 h
  % Mortality 24 h: 100%
[3]; Conc. 0.2 ug/cm2, 4 h
  % Mortality 4 h: 60%
[3]; Conc. 0.2 ug/cm2, 24 h
  % Mortality 24 h: 100%
[3]; Conc. 2 ug/cm2, 4 h
  % Mortality 4 h: 100%
[3]; Conc. 2 ug/cm2, 24 h
  % Mortality 24 h: 100%

## CC1(c2nn(-c3c(Cl)cc(C(F)(F)F)cc3Cl)cc2C#N)CC1(Br)Br (stereo not drawn) [Example 14]
[1]; Conc. 0.78 ug/cm2, 4 h
  % Mortality 4 h: 40%
[1]; Conc. 0.78 ug/cm2, 24 h
  % Mortality 24 h: 40%
[1]; Conc. 7.80 ug/cm2, 4 h
  % Mortality 4 h: 50%
[1]; Conc. 7.80 ug/cm2, 24 h
  % Mortality 24 h: 80%
[2]; [4]
  % Mortality 24 h: 50%
[2]; [5]
  % Mortality 48 h: 50%
[2]; [6]
  % Mortality 24 h: 100%
[2]; [7]
  % Mortality 48 h: 100%
[2]; [8]
  % Mortality 24 h: 95%
[2]; [9]
  % Mortality 48 h: 100%
[3]; Conc. 2 ug/cm2, 4 h
  % Mortality 4 h: 10%
[3]; Conc. 2 ug/cm2, 24 h
  % Mortality 24 h: 100%

## CC1(c2nn(-c3c(Cl)cc(C(F)(F)F)cc3Cl)c(Br)c2C#N)CC1(Br)Br (stereo not drawn) [Example 22]
[1]; Conc. 0.78 ug/cm2, 4 h
  % Mortality 4 h: 20%
[1]; Conc. 0.78 ug/cm2, 24 h
  % Mortality 24 h: 30%
[1]; Conc. 7.80 ug/cm2, 4 h
  % Mortality 4 h: 0%
[1]; Conc. 7.80 ug/cm2, 24 h
  % Mortality 24 h: 60%
[2]; [4]
  % Mortality 24 h: 0%
[2]; [5]
  % Mortality 48 h: 0%
[2]; [6]
  % Mortality 24 h: 100%
[2]; [7]
  % Mortality 48 h: 100%
[2]; [8]
  % Mortality 24 h: 100%
[2]; [9]
  % Mortality 48 h: 100%
[3]; Conc. 2 ug/cm2, 4 h
  % Mortality 4 h: 0%
[3]; Conc. 2 ug/cm2, 24 h
  % Mortality 24 h: 100%

## CC1(c2nn(-c3c(Cl)cc(C(F)(F)F)cc3Cl)c(Br)c2C#N)CC1(Cl)Cl (stereo not drawn) [Example 29]
[1]; Conc. 0.78 ug/cm2, 4 h
  % Mortality 4 h: 0%
[1]; Conc. 0.78 ug/cm2, 24 h
  % Mortality 24 h: 40%
[1]; Conc. 7.80 ug/cm2, 4 h
  % Mortality 4 h: 20%
[1]; Conc. 7.80 ug/cm2, 24 h
  % Mortality 24 h: 60%
[2]; [4]
  % Mortality 24 h: 15%
[2]; [5]
  % Mortality 48 h: 15%
[2]; [6]
  % Mortality 24 h: 100%
[2]; [7]
  % Mortality 48 h: 100%
[2]; [8]
  % Mortality 24 h: 100%
[2]; [9]
  % Mortality 48 h: 100%
[3]; Conc. 0.02 ug/cm2, 4 h
  % Mortality 4 h: 10%
[3]; Conc. 0.02 ug/cm2, 24 h
  % Mortality 24 h: 100%
[3]; Conc. 0.2 ug/cm2, 4 h
  % Mortality 4 h: 20%
[3]; Conc. 0.2 ug/cm2, 24 h
  % Mortality 24 h: 100%
[3]; Conc. 2 ug/cm2, 4 h
  % Mortality 4 h: 50%
[3]; Conc. 2 ug/cm2, 24 h
  % Mortality 24 h: 100%
